Experimental findings from patent US12208088B2 (Genentech, Inc., priority 2018, dated 2025) are described below.

The target of the assay is HPK1 (Homo sapiens (Human), UniProt Q92918). Put plainly: HPK1 Lantha binding assay ("Lanth"). The conditions noted are these: binding assays; Morrison Ki fit. The method, boiled down: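 TR-FRET binding competition using 2 nM HPK1, 2 nM Eu-anti-GST antibody and 15 nM Tracer222 at 23 °C. Compound was incubated 1 h with enzyme and antibody, then 1 h after tracer addition, with an 11-point 5-fold dilution series. Ki obtained from a Morrison fit that corrects for tracer concentration and Kd.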
HPK1, sequence (Q92918 1-346 limits assumed): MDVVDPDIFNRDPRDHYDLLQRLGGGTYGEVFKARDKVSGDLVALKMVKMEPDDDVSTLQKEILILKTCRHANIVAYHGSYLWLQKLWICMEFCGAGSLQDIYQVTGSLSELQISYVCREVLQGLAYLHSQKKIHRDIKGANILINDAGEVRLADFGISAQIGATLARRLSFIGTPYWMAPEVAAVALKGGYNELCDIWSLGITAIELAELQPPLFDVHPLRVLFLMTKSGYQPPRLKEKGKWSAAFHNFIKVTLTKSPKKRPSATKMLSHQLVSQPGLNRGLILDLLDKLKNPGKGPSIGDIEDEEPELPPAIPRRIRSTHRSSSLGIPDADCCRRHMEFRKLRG

Turning to `CN(C)C(=O)c1c(N)ccc(-c2cnc3c(c2Cl)[C@]2(CCNC(=O)C2)CN3)c1F` [Compound 122a, (R)-6-Amino-3-(4′-chloro-2-oxo-1′,2′-dihydrospiro[piperidine-4,3′-pyrrolo[2,3-b]pyridin]-5′-yl)-2-fluoro-N,N-dimethylbenzamide], the affinity corresponds to a Ki of 0.304 µM.
In turn, `CN(C)C(=O)c1c(N)ccc(-c2cnc3c(c2Cl)[C@@]2(CCNC(=O)C2)CN3)c1F` [Compound 122b, (S)-6-Amino-3-(4′-chloro-2-oxo-1′,2′-dihydrospiro[piperidine-4,3′-pyrrolo[2,3-b]pyridin]-5′-yl)-2-fluoro-N,N-dimethylbenzamide] returned a Ki of 0.026 µM.
On to `CN(C)C(=O)c1c(N)ccc(-c2cnc3c(c2Cl)C2(CCC(CC#N)C2)CN3)c1F` (stereo not drawn) [Compound 130, 6-Amino-3-(4′-chloro-3-(cyanomethyl)-1′,2′-dihydrospiro[cyclopentane-1,3′-pyrrolo[2,3-b]pyridin]-5′-yl)-2-fluoro-N,N-dimethylbenzamide], for which affinity was put at a Ki of 0.004 µM.
Then `CN(Cc1cnn(C)c1)C(=O)c1cccc(-c2cnc3c(c2)C2(CC2)CN3)c1F` [Compound 136, 3-(1′,2′-dihydrospiro[cyclopropane-1,3′-pyrrolo[2,3-b]pyridin]-5′-yl)-2-fluoro-N-methyl-N-((1-methyl-1H-pyrazol-4-yl)methyl)benzamide], with 0.0159 µM; and `CCN(C(=O)c1cccc(-c2cnc3c(c2)C2(CC2)CN3)c1F)C1CCC1` [Compound 137, N-cyclobutyl-3-(1′,2′-dihydrospiro[cyclopropane-1,3′-pyrrolo[2,3-b]pyridin]-5′-yl)-N-ethyl-2-fluorobenzamide], with 0.0341 µM.
In turn, `CN(CCC#N)C(=O)c1cccc(-c2cnc3c(c2)C2(CC2)CN3)c1F` [Compound 138, N-(2-cyanoethyl)-3-(1,2′-dihydrospiro[cyclopropane-1,3′-pyrrolo[2,3-b]pyridin]-5′-yl)-2-fluoro-N-methylbenzamide] yielded a Ki of 0.0386 µM.
Then `CC(C)C1CN(C(=O)c2cccc(-c3cnc4c(c3)C3(CC3)CN4)c2F)C1` [Compound 139, (3-(1′,2′-dihydrospiro[cyclopropane-1,3′-pyrrolo[2,3-b]pyridin]-5′-yl)-2-fluorophenyl)(3-isopropylazetidin-1-yl)methanone], with 0.12 µM; and `CN(C(=O)c1cccc(-c2cnc3c(c2)C2(CC2)CN3)c1F)c1cnn(C)c1` [Compound 141, 3-(1′,2′-dihydrospiro[cyclopropane-1,3′-pyrrolo[2,3-b]pyridin]-5′-yl)-2-fluoro-N-methyl-N-(1-methyl-1H-pyrazol-4-yl)benzamide], with 0.126 µM.
For `CC1CN(C(=O)c2cccc(-c3cnc4c(c3)C3(CC3)CN4)c2F)C1` [Compound 142, (3-(1′,2′-dihydrospiro[cyclopropane-1,3′-pyrrolo[2,3-b]pyridin]-5′-yl)-2-fluorophenyl)(3-methylazetidin-1-yl)methanone] the value was 0.116 µM.
Compound `CN(C)C(=O)c1c(N)ccc(-c2cnc3c(c2Cl)[C@]2(CC[C@@H](O)CC2)CN3)c1F` [Compound 144a, 6-Amino-3-((1r,4r)-4′-chloro-4-hydroxy-1′,2′-dihydrospiro[cyclohexane-1,3′-pyrrolo[2,3-b]pyridin]-5′-yl)-2-fluoro-N,N-dimethylbenzamide] showed a Ki of 0.0396 µM.
Then `CN(C)C(=O)c1c(N)ccc(-c2cnc3c(c2Cl)[C@]2(CC[C@H](O)CC2)CN3)c1F` [Compound 144b, 6-Amino-3-((1s,4s)-4′-chloro-4-hydroxy-1′,2′-dihydrospiro[cyclohexane-1,3′-pyrrolo[2,3-b]pyridin]-5′-yl)-2-fluoro-N,N-dimethylbenzamide], with 0.00998 µM.
Then `CN(C)C(=O)c1c(N)ccc(-c2cnc3c(c2Cl)C2(CCC(c4cccnc4)C2)CN3)c1F` (stereo not drawn) [Compound 145, 6-Amino-3-(4′-chloro-3-(pyridin-3-yl)-1′,2′-dihydrospiro[cyclopentane-1,3′-pyrrolo[2,3-b]pyridin]-5′-yl)-2-fluoro-N,N-dimethylbenzamide], with 0.00937 µM.
Then `CN(C)C(=O)c1c(N)ccc(-c2cnc3c(c2Cl)[C@]2(CC[C@@H](c4cccnc4)C2)CN3)c1F` [Compound 145a, 6-Amino-3-((1R,3R)-4′-chloro-3-(pyridin-3-yl)-1′,2′-dihydrospiro[cyclopentane-1,3′-pyrrolo[2,3-b]pyridin]-5′-yl)-2-fluoro-N,N-dimethylbenzamide], with 0.00994 µM; and `CN(C)C(=O)c1c(N)ccc(-c2cnc3c(c2Cl)[C@]2(CC[C@H](c4cccnc4)C2)CN3)c1F` [Compound 145c, 6-Amino-3-((1R,3S)-4′-chloro-3-(pyridin-3-yl)-1′,2′-dihydrospiro[cyclopentane-1,3′-pyrrolo[2,3-b]pyridin]-5′-yl)-2-fluoro-N,N-dimethylbenzamide], with 0.0104 µM.
On to `CN(C)C(=O)c1c(N)ccc(-c2cnc3c(c2Cl)[C@@]2(CC[C@@H](c4cccnc4)C2)CN3)c1F` [Compound 145d, 6-Amino-3-((1S,3R)-4′-chloro-3-(pyridin-3-yl)-1′,2′-dihydrospiro[cyclopentane-1,3′-pyrrolo[2,3-b]pyridin]-5′-yl)-2-fluoro-N,N-dimethylbenzamide], for which affinity was put at a Ki of 0.0199 µM.
For `O=C(c1cccc(-c2cnc3c(c2)C2(CC2)CN3)c1F)N1CCC12COC2` [Compound 147, (3-(1′,2′-dihydrospiro[cyclopropane-1,3′-pyrrolo[2,3-b]pyridin]-5′-yl)-2-fluorophenyl)(6-oxa-1-azaspiro[3.3]heptan-1-yl)methanone] the value was 0.0613 µM.
For `Cc1cnn([C@H]2CC[C@]3(CC2)CNc2ncc(-c4ccc(N)c(C(=O)N(C)C)c4F)c(Cl)c23)c1` [Compound 148a, 6-Amino-3-((1s,4s)-4′-chloro-4-(4-methyl-1H-pyrazol-1-yl)-1′,2′-dihydrospiro[cyclohexane-1,3′-pyrrolo[2,3-b]pyridin]-5′-yl)-2-fluoro-N,N-dimethylbenzamide] the value was 0.00221 µM; for `CN(C)C(=O)c1cccc(-c2cnc3c(c2)C2(CC2)CN3)c1F` [Compound 149, 3-(1′,2′-dihydrospiro[cyclopropane-1,3′-pyrrolo[2,3-b]pyridin]-5′-yl)-2-fluoro-N,N-dimethylbenzamide], 0.0335 µM; for `N#C[C@H]1CCCN1C(=O)c1cccc(-c2cnc3c(c2)C2(CC2)CN3)c1F` [Compound 154a, (R)-1-(3-(1′,2′-dihydrospiro[cyclopropane-1,3′-pyrrolo[2,3-b]pyridin]-5′-yl)-2-fluorobenzoyl)pyrrolidine-2-carbonitrile], 0.0142 µM.
`Cc1ccnn1[C@H]1CC[C@@]2(CNc3ncc(-c4ccc(N)c(C(=O)N(C)C)c4F)c(Cl)c32)C1` [Compound 160a, 6-Amino-3-((1R,3S)-4′-chloro-3-(5-methyl-1H-pyrazol-1-yl)-1′,2′-dihydrospiro[cyclopentane-1,3′-pyrrolo[2,3-b]pyridin]-5′-yl)-2-fluoro-N,N-dimethylbenzamide]: the Ki was determined as 0.0565 µM.
For `CN(Cc1cnn(C)c1)C(=O)c1c(N)ccc(-c2cnc3c(c2Cl)C2(CC2)CN3)c1F` [Compound 166, 6-Amino-3-(4′-chloro-1′,2′-dihydrospiro[cyclopropane-1,3′-pyrrolo[2,3-b]pyridin]-5′-yl)-2-fluoro-N-methyl-N-((1-methyl-1H-pyrazol-4-yl)methyl)benzamide] the value was 0.00439 µM.

For orientation: Ki means the dissociation constant of the complex between target and ligand, obtained from inhibition or displacement. Lower therefore signals a stronger hold on the target.
